Experimental data as given in US12161654B2, “Stability of vitamin D in β-hydroxy-β-methylbutyrate (HMB)” (Metabolic Technologies, LLC, priority 2018, dated 2024).

How the values were obtained:
[1] = after HMB is fed; cited from earlier work
[2] = healthy young or old adults; cited from earlier work
[3] = pH of HMBFA and buffered HMBFA; format: physicochemical
Excerpt: In most instances, the HMB utilized in clinical studies and marketed as an ergogenic aid has been in the calcium salt form. Recent advances have allowed the HMB to be manufactured in a free acid form for use human and animal uses, and preferably as a nutritional supplement or incorporated into foodstuffs. […] The pH of HMBFA is <3.
Preparation of Buffered HMB in the Free Acid Form (HMBFA) Briefly, 400 g HMBFA (TSI lot 12111036) was weigh into a one liter beaker and then 37.8 g of with potassium carbonate (K2CO3) was added to the HMBFA. A stir bar was added and the mixture was stirred for 60 h. The resulting pH was approximately 4.5. Alternatively, the reaction may be accelerated by mixing water (35 g) with potassium carbonate (37) g and then adding HMBFA (400 g).

Row | SMILES | loss of HMB to urine [1] | side effects [2] | pH [3]
1 | CC(C)(O)CC(=O)O [HMB, β-hydroxy-β-methylbutyrate] | 20-50% | no side effects | –
2 | CC(C)(O)CC(=O)O [HMBFA, β-hydroxy-β-methylbutyrate] | – | – | < 3
